Test results taken from patent publication US9650338B1 (priority 2016, dated 2017).

Tests used:
[1] = target: opiate receptor sites in the CNS; assay: Competitive binding to opiate receptor sites in the CNS, rat brain, 3H-Naloxone
[2] = target: opiate receptor sites in the CNS; assay: Competitive binding to opiate receptor sites in the CNS, mouse brain; conditions: Brain of the mouse (Table 5, mean; spread in a separate column)
[3] = test system: respiratory depression caused by LD50 of Promedol (Trimeperidine); assay: Antagonism of respiratory depression caused by LD50 of Promedol; conditions: rat, Promedol (Trimeperidine) 70 mg/kg (LD50)
[4] = test system: analgesic effects of the ED99 of morphine; assay: Antagonism of the analgesic effect of the ED99 of morphine, mechanical irritation of the tail; conditions: rat, under skin injection, morphine 5 mg/kg (ED99)

SMILES	IC50 ([1]; Brain of the rate (Table 5, mean; spread in a separate column), read-out: IC50) [nM]	IC50 ([1]; brain of the rat, 3H-Naloxone (Table 4), read-out: Affinity IC50) [nM]	IC50 [2] [nM]	Median Antagonistic activity AD50 (parenthetical is range) [3]	Median Antagonistic activity AD50 (parenthetical is range) [4]
CCC(=O)NC1CC(C)N(CCc2ccccc2)CC1C (stereo not shown) [N-[2,5-dimethyl-1-(2-phenylethyl)piperidin-4-yl]propanamide]	0.12	0.12	0.1	5.1 (3.4-7.8) mg/kg	1.2 (0.8-1.64) mg/kg
C=CCN1CC[C@]23c4c5ccc(O)c4O[C@H]2C(=O)CC[C@@]3(O)[C@H]1C5 [naloxone, 17-allyl-4,5a-epoxy-3,14-dihydroxymorphinan-6-one, reference compound]	–	–	–	1.8 (1.1-3.2) mg/kg	0.3 (0.22-0.39) mg/kg
